From patent publication US7799775B2, “Pyrimidine derivatives” (ASKA Pharmaceutical Co., Ltd., priority 2004, dated 2010)

Legend:
human 5-HT1A receptor = biological target: T1, human 5-HT1A receptor (Homo sapiens, UniProt P08908); assay: Affinity measurement of the compounds to human 5-HT1A receptor (in vitro), [3H]8-OH-DPAT binding; conditions: test compound 100 nmols/L, [3H]8-OH-DPAT 0.25 nmols/L, CHO cell membrane expressing human 5-HT1A receptor; for inhibition at 0.1 µM: read-out: Percent Inhibition (%) on Each Receptor's Binding at 10^−7M, 5-HT1A
T1 construct: purchased Packard Bioscience; host or cells: CHO cells (membrane preparation)
T1 sequence (P08908 1-422): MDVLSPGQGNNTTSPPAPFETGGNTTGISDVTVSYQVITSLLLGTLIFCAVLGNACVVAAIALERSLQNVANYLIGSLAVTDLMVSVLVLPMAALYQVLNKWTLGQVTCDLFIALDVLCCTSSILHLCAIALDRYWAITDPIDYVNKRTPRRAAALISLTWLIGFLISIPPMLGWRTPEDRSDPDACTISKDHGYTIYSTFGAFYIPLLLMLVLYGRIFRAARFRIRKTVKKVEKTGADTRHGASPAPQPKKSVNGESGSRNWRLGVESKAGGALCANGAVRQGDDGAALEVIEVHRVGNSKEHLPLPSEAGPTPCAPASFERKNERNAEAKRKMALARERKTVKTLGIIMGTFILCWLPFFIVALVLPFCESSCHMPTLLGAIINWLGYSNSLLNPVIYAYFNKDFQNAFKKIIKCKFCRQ
Outline: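 Membranes from CHO cells expressing human 5-HT1A were incubated 60 min at 27 °C with 0.25 nmol/L [3H]8-OH-DPAT and compound in Tris/MgSO4/EDTA/ascorbate buffer, pH 7.4. Bound radioactivity was collected on PEI-soaked GF/C filters and counted; percent inhibition was corrected for non-specific binding defined with 10 μmol/L 8-OH-DPAT.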

human 5-HT3 receptor = biological target: T2, human 5-HT3 receptor (Homo sapiens, UniProt P46098); assay: Measurement of affinity to human 5-HT3 receptor (in vitro), [3H]BRL-43694 binding; conditions: test compound 100 nmols/L, [3H]BRL-43694 0.5 nmols/L, HEK-293 cell membrane expressing human 5-HT3 receptor; for inhibition at 0.1 µM: read-out: Percent Inhibition (%) on Each Receptor's Binding at 10^−7M, 5-HT3
T2 construct: purchased BIOLINKS K.K; host or cells: HEK-293 cells (membrane preparation)
T2 sequence (P46098 24-478): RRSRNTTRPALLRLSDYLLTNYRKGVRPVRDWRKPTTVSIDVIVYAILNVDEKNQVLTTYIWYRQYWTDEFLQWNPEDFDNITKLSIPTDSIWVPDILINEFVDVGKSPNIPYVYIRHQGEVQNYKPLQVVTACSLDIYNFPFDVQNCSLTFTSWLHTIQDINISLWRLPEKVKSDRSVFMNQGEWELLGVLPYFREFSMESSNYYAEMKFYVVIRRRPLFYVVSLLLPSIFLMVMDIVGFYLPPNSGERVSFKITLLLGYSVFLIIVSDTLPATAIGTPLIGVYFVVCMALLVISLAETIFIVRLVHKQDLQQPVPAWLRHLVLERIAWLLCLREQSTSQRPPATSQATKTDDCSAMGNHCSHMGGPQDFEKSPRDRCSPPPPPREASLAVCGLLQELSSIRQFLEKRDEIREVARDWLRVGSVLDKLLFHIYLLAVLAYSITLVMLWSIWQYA
Outline: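 Membranes from HEK-293 cells expressing the receptor were incubated with 0.5 nmol/L radioligand and compound for 60 min at 25 °C in Tris/MgCl2/EDTA buffer, pH 7.5. Bound radioactivity was collected by filtration and counted. Percent inhibition was corrected for non-specific binding defined with 10 μmol/L tropisetron; compounds were tested at 100 nmol/L.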

SMILES	inhibition at 0.1 µM (human 5-HT1A receptor)	inhibition at 0.1 µM (human 5-HT3 receptor)	Percent Inhibition (%) on Each Receptor's Binding at 10^−7M, 5-HT1A (human 5-HT1A receptor)	Percent Inhibition (%) on Each Receptor's Binding at 10^−7M, 5-HT3 (human 5-HT3 receptor)
CC(CCCc1nc2c(c(=O)n1C)CCCC2)N1CCN(c2ccc3ccccc3n2)CC1 (stereo not shown) [Example 7-14, 3-methyl-2-[4-(4-quinolin-2-ylpiperazin-1-yl)pentyl]-5,6,7,8-tetrahydro-3H-quinazolin-4-one]	77.8%	16.7%		
O=c1[nH]c(NCCCN2CCN(c3nc4ccccc4n4cccc34)CC2)nc2ccccc12 [Example 5-8, 2-[3-(4-pyrrolo[1,2-a]quinoxalin-4-ylpiperazin-1-yl)propylamino]-3H-quinazolin-4-one]	54.5%	85.5%		
Cc1cc(N2CCN(CCCCc3nc4c(c(=O)n3Cc3ccccc3)CCCC4)CC2)nc2ccccc12 [Example 7-8, 3-benzyl-2-[4-[4-(4-methylquinolin-2-yl)piperazin-1-yl]butyl]-5,6,7,8-tetrahydro-3H-quinazolin-4-one]	93.4%	78.8%		
CCn1c(CCCCN2CCN(c3ccc4ccccc4n3)CC2)nc2ccccc2c1=O [Example 7-21, 3-2-[4-(4-quinolin-2-ylpiperazin-1-yl)butyl]-3H-quinazolin-4-one]	97.4%	95%		
CC1CCCc2c1nc(CCCCN1CCN(c3ccc4ccccc4n3)CC1)n(N)c2=O (stereo not shown) [Example 4-36, 3-amino-8-methyl-2-[4-(4-quinolin-2-ylpiperazin-1-yl)butyl]-5,6,7,8-tetrahydro-3H-quinazolin-4-one]	90.4%	87.7%		
Brc1ccc2ccnc(N3CCNCC3)c2c1 [Production Example 30, 7-bromo-1-piperazin-1-ylisoquinoline]	92.8%	93.4%		
O[C@@H]1C[C@H]2CN(c3nccc4occc34)CCN2C1 [Production Example 114, 4-((7R,8aS)-7-hydroxyoctahydropyrrolo[1,2-a]pyrazin-2-yl)furo[3,2-c]-pyridine]	16.7%	91%		
CC1CCc2nc(CCCCN3CCN(c4ccc5ccccc5n4)CC3)n(C)c(=O)c2C1 (stereo not shown) [Example 7-12, 3,6-dimethyl-2-[4-(4-quinolin-2-ylpiperazin-1-yl)butyl]-5,6,7,8-tetrahydro-3H-quinazolin-4-one]	96%	93.2%		
COc1ccc(-n2c(CCCCN3CCN(c4ccc5ccccc5n4)CC3)nc3ccccc3c2=O)cc1 [Example 7-17, 3-(4-methoxyphenyl)-2-[4-(4-quinolin-2-ylpiperazin-1-yl)butyl]-3H-quinazolin-4-one]	50.6%	1.9%		
Cc1ccc2c(=O)n(C)c(CCCCN3CCN(c4ccc5ccccc5n4)CC3)nc2c1 [Example 7-24, 3,7-dimethyl-2-[4-(4-quinolin-2-ylpiperazin-1-yl)butyl]-3H-quinazolin-4-one]	78.3%	30%		
CN1CCN(c2nccc3c(Cl)cccc23)CC1 [Production Example 61, 5-chloro-1-(4-methylpiperazin-1-yl)isoquinoline]	25.3%	94.1%		
c1cc2ccsc2c(N2CCN3CCCCC3C2)n1 (stereo not shown) [Production Example 120, 7-octahydropyrido[1,2-a]pyrazin-2-ylthieno[2,3-c]pyridine]	81%	99.4%		
Cn1c(CCCCN2CCN(c3ccc4ccccc4n3)CC2)nc2ccc(Cl)cc2c1=O [Example 7-25, 6-chloro-3-methyl-2-[4-(4-quinolin-2-ylpiperazin-1-yl)butyl]-3H-quinazolin-4-one]	97.5%	99.7%		
Cc1sc2nc(CCCCN3CCN(c4ccc5ccccc5n4)CC3)n(N)c(=O)c2c1C [Example 4-35, 3-amino-5,6-dimethyl-2-[4-(4-quinolin-2-ylpiperazin-1-yl)butyl]-3H-thieno[2,3-d]pyrimidin-4-one]	98%	96.9%		
CCn1c(CCCCN2CCN(c3ccc4ccccc4n3)CC2)nc2c(c1=O)CC(C)CC2 (stereo not shown) [Example 7-13, 3-ethyl-6-methyl-2-[4-(4-quinolin-2-ylpiperazin-1-yl)butyl]-5,6,7,8-tetrahydro-3H-quinazolin-4-one]	90.2%	93.6%		
Fc1ccc2ccnc(N3CCNCC3)c2c1 [Production Example 63, 7-fluoro-1-piperazin-1-ylisoquinoline]	80.4%	96.8%		
Cc1cc2c(N3CCNCC3)nccc2o1 [Production Example 25, 2-methylpiperazin-1-ylfuro[3,2-c]pyridine]	83.2%	65.5%		
c1cc2sccc2c(N2CCN3CCCCC3C2)n1 (stereo not shown) [Production Example 121, 4-octahydropyrido[1,2-a]pyrazin-2-ylthieno[3,2-c]pyridine]	69.3%	85.6%		
O[C@@H]1C[C@H]2CN(c3nccc4ccsc34)CCN2C1 [Production Example 112, 7-((7R,8aS)-7-hydroxyoctahydropyrrolo[1,2-a]pyrazin-2-yl)thieno-[2,3-c]pyridine]	53.9%	98.8%		
O=c1c2c(nc(CCCCN3CCN(c4nc5ccccc5s4)CC3)n1Cc1ccccc1)CCCC2 [Example 7-11, 2-[4-(4-benzothiazol-2-ylpiperazin-1-yl)butyl]-3-benzyl-5,6,7,8-tetrahydro-3H-quinazolin-4-one]	45%	24.7%		
Cn1c(CCCCN2CCN(c3nc4ccccc4s3)CC2)nc2c(c1=O)CCCC2 [Example 7-9, 2-[4-(4-benzothiazol-2-ylpiperazin-1-yl)butyl]-3-methyl-5,6,7,8-tetrahydro-3H-quinazolin-4-one]	91%	32%		
Cn1c(SCCCN2CCN(c3ccc4ccccc4n3)CC2)nc2ccccc2c1=O [Example 7-28]	74.7%	87.3%		
c1cc2occc2c(N2CCN3CCC[C@@H]3C2)n1 [Production Example 113, 4-((8aR)-octahydropyrrolo[1,2-a]pyrazin-2-yl)furo[3,2-c]pyridine]	56.4%	82.4%		
O=c1c2ccccc2nc(CCCCN2CCN(c3ccc4ccccc4n3)CC2)n1Cc1ccccc1 [Example 7-16, 3-benzyl-2-[4-(4-quinolin-2-ylpiperazin-1-yl)butyl]-3H-quinazolin-4-one]	72.2%	66.8%		
Cn1c(NCCCN2CCN(c3ccc4ccccc4n3)CC2)nc2c(c1=O)CCCC2 [Example 7-29, 3-methyl-2-[3-(4-quinolin-2-ylpiperazin-1-yl)propylamino]-5,6,7,8-tetrahydro-3H-quinazolin-4-one]	80.8%	93.6%		
Oc1ccc2ccnc(N3CCN4CCC[C@H]4C3)c2c1 [Production Example 85]	99.9%	98.9%		
COc1cc(N2CCN(CCCCc3nc4ccccc4c(=O)n3N)CC2)nc2ccccc12 [Example 4-22, 3-amino-2-[4-(4-methoxyquinolin-2-yl)piperazin-1-yl]butyl-3H-quinazolin-4-one]			58.2%	93.9%
Cc1sc2nc(CCCCN3CCN(c4ccc5ccccc5n4)CC3)n(C)c(=O)c2c1C [Example 7-23, 3,5,6-trimethyl-2-[4-(4-quinolin-2-ylpiperazin-1-yl)butyl]-3H-thieno[2,3-d]pyrimidin-4-one]	77%	74.8%		
Clc1ccc2ccnc(N3CCN4CCC[C@@H]4C3)c2c1 [Production Example 76, 7-chloro-1-((8aR)-octahydropyrrolo[1,2-a]pyrazin-2-yl)isoquinoline]	96.6%	94.4%		
